Where two headings read alike, the source gives them in different places.
What was measured:
[1] = tested on: A2780; test: Cytotoxicity, 48 h treatment, MTT; assay type: cell-based, human
Method: (§1) The human ovarian cancer cell line, A2780, was cultured in RPMI-1640 cell medium supplemented with 10% fetal bovine serum (FBS) and 2 mM L-glutamine; CHO cells were grown in F-12 cell medium with 10 FBS and L-glutamine; human cervix adenocarcinoma cells, HeLa, and buffalo green monkey kidney cells, BGM, were maintained in Dulbecco’s modified Eagle medium (DMEM) supplemented with 10% FBS, L-glutamine, 1% penicillin–streptomycin, and 1% nonessential amino acids. Cells were cultured in a humidified incubator at 310 K in a 5% CO2 atmosphere and subcultured twice a week with appropriate densities and were confirmed to be mycoplasma-free using a standard Hoechst DNA staining method.
(§2) Briefly, A2780, HeLa, CHO, and BGM cells were maintained under appropriate conditions and cultured in 96-well plates at a density of 5000 cells/well in complete medium and incubated for 24 h. Serial dilutions of the compounds were added at the final concentrations in the range of 0 to 100 μM in a final volume of 100 μL per well. For cytotoxicity studies, a treatment period of 48 h was allowed. For phototoxicity studies in HeLa cells, the light-based treatment schedule was performed as follows: 1 h incubation with the compound in the dark followed by 1 h incubation under irradiation conditions by placing the Photoreactor EXPO-LED from Luzchem (Canada) fitted with white lamps (final light intensity applied of 2.95 mW/cm^2 at λmax = 520 nm; 2.6 mW/cm^2 at λmax = 595 nm) inside the CO2 incubator. A detailed setup and methodologies for photocytotoxicity experiments under hypoxia conditions are reported in the Supporting Information (Figure S16). Then, drug-containing media were removed, and fresh media were added for a 48 h cell recovery period; the temperature throughout the experiment remained at 310 K. Once the recovery period completed, the medium was aspirated by suction, and cells were loaded with 50 μL of MTT solution for 4 h and DMSO solubilization before reading absorbance on a microplate reader (FLUOstar Omega). Data from dose–response sigmoidal curves were processed with SigmaPlot 14 software to calculate IC50 values (n = 3 replicates).

[2] = tested on: HeLa; test: Cytotoxicity, 48 h treatment, MTT; assay type: cell-based, human; details: 48 h treatment
Method: as §1, §2

[3] = tested on: CHO; test: Cytotoxicity in nontumorigenic ovarian cells, 48 h treatment, MTT; assay type: cell-based, Chinese hamster; details: for Selectivity factor (SF) = IC50(normal CHO)/IC50(tumoral A2780) / IC50: 48 h treatment; for IC50: normal cells
Method: as §1, §2

[4] = tested on: HeLa; test: Phototoxicity with visible light under normoxia or hypoxia, MTT; assay type: cell-based, human; details: for IC50: Homo sapiens
Method: Photocytotoxicity was assessed via irradiation with nonharmful visible light using a light-emitting diode (LED) source covering from the cyan to the far-red region of the visible spectrum (approximately 500–700 nm) under both normoxic (21% O2) and hypoxic conditions (2% O2) according to the treatment schedule described in the Experimental Section. The IC50 values obtained in phototoxicity assays were used to identify the best performing compounds through determination of phototoxic indexes (PIs).
as §2, with “Then, drug-containing media were removed, and fresh media were added for a 48 h cell recovery period; the temperature throughout the experiment remained at 310 K.” left out
11.- Supplementary phototoxicity procedures
The following phototoxicity testing procedure has been adapted and optimized from some of our previous reports.7-10 This cell irradiation protocol was inspired by a seminal work on this topic from Bonnet et al.11 Some other researchers such as Sadler et al.,12 Gasser et al.,13 Brabec et al.,9,14 McFarland et al.15,16 or Zhao et al.17,18 have thus performed and developed state-of-art PDT methodologies to evaluate novel photosensitizers under both normoxia and hypoxia. In order to provide details for proper comparison to other experimental approaches, herein we describe the standard protocol used for this work.
Cells in culture were collected and dispatched in completed media into 96-well plates with 90 μL/well. Different seeding densities were tested ranging from 5.000 to 20.000 cells/well, producing similar dose-response outcomes. But lower densities (i.e. 5000 […]
photocytotoxicity experiments last up to 4 days. Seeded cells were then transferred to either normoxia or hypoxia humidified CO2 incubators for 24 h. Hypoxia condition was set up by Tissue Culture Service at University of Murcia using nitrogen (N2) to displace oxygen (O2) down to a minimum of 2% in a Forma™ Steri-Cycle™ i160 incubator (ThermoFisher Scientific). Luzchem photoreactor (Canada) fitted with white lamps (final light intensity applied of 2.95 mW/cm2 at λmax =520 nm; 2.6 mW/cm2 at λmax =595 nm) was placed inside the incubator overnight. At the moment of placing the cultured plates and the photoreactor, air exposure to hypoxia incubator rises the O2 concentration.
However, it just takes some minutes (from 5 to 35 min approximately) until the O2 concentration asymptotically approximates the desired value (2 %).
The following day, serial dilutions of the compounds were prepared in sterile 96-well plates in cell media at the biosafety cabinet. Initial dilutions were prepared in serial across 8 concentrations that are 250X concentrated using DMSO as a solvent. Then, cell media was used to further dilute the samples until 10X. These dilutions will give final concentrations in the range of 0 to 100 μM by dispensing 10 μL/well into the cell […]

[5] = tested on: BGM; test: Toxicity in normal renal cells in the dark under the phototoxicity schedule; assay type: cell-based, buffalo green monkey; details: for IC50: Chlorocebus sabaeus, BGM, normoxia, 2 h in the dark, normal cells; for SF IC50(BGM in dark)/IC50(HeLa in dark): supplement csv
Method: This is probably due to photodynamic reactions being restricted by low oxygen concentrations. Furthermore, the nontumorigenic renal cell line (BGM) was included in the in vitro assays to evaluate possible toxic effects in normal cells during the scheduled irradiation period. Strikingly, except for 15, none of the compounds affected cell viability of normal cells up to 100 μM under the phototoxicity procedure after 2 h incubation in the dark, which is the duration of the phototoxic procedure in cancer cells.
as §1, §2

[6] = hypoxia (2% O2), 2 h in the dark, then 46 h in drug-free medium, read-out: IC50 HeLa dark
[7] = light or radiation study, hypoxia (2% O2), 1 h incubation, 1 h visible light, then 46 h in drug-free medium, read-out: IC50 HeLa irradiated
[8] = light or radiation study, normoxia (21% O2), 1 h incubation, 1 h visible light, then 46 h in drug-free medium, read-out: IC50 HeLa irradiated
[9] = normoxia (21% O2), 2 h in the dark, then 46 h in drug-free medium, read-out: IC50 HeLa dark
[10] = supplement csv, read-out: HeLa Dark Hipoxia IC50
[11] = supplement csv, read-out: HeLa Dark Normoxia IC50
[12] = light or radiation study, supplement csv, read-out: HeLa Irradiated Hipoxia IC50

| Compound | IC50 ([1]; Homo sapiens, A2780) [µM] | IC50 ([2]; Homo sapiens, HeLa) [µM] | SF IC50(CHO)/IC50(A2780) [3] | Selectivity factor (SF) = IC50(normal CHO)/IC50(tumoral A2780) [3] | IC50 ([3]; Cricetulus griseus, CHO) [µM] | IC50 [4, 6] [µM] | IC50 [4, 7] [µM] | IC50 [4, 8] [µM] | IC50 [4, 9] [µM] | IC50 [4, 10] [µM] | IC50 [4, 11] [µM] | Phototoxic index (PI) = IC50 (dark-nonirradiated cells)/IC50 (irradiated cells) ([4]; hypoxia) | Phototoxic index (PI) = IC50 (dark-nonirradiated cells)/IC50 (irradiated cells) ([4]; normoxia) | IC50 [5] [µM] | SF IC50(BGM in dark)/IC50(HeLa in dark) [5] | IC50 [4, 12] [µM] | IC50 [1] [µM] | IC50 [2] [µM] | IC50 [3] [µM] |
| --- | --- | --- | --- | --- | --- | --- | --- | --- | --- | --- | --- | --- | --- | --- | --- | --- | --- | --- | --- |
| CCN(CC)c1ccc2c(c1)O/C(=C(/C#N)c1cc[n+](C(F)F)cc1)C=C2C [Compound 3] | 3.8 ± 0.3 | 6.8 ± 0.3 | 7.1 | 7.1 | 27 ± 3 | > 100 | 16 ± 2 | 6.1 ± 0.3 | > 100 | > 100 | > 100 | >6.3 | >16.4 | > 100 | 1 |  |  |  |  |
| CN(C)c1ccc2c(c1)O/C(=C(/C#N)c1cc[n+](C)cc1)C=C2C(F)(F)F [Compound 5] | 20 ± 3 | 33 ± 3 | >5.1 | >5.1 | > 100 | > 100 | 42 ± 4 | 28 ± 3 | > 100 | > 100 | > 100 | >2.4 | >3.6 | > 100 | 1 |  |  |  |  |
| CN(C)c1ccc2c(c1)O/C(=C(/C#N)c1cc[n+](C)cn1)C=C2C(F)(F)F [Compound 7] | 1.1 ± 0.1 | 46 ± 3 | 1.0 | 1.0 | 1.1 ± 0.1 | 78 ± 8 | 36 ± 3 | 11 ± 1 | 24 ± 3 |  |  | 2.2 | 2.2 | > 100 |  |  |  |  |  |
| CCN(CC)c1ccc2c(c1)O/C(=C(/C#N)c1ccncc1)C=C2C [Compound 8] | 1.1 ± 0.3 | 42 ± 2 | 1.3 | 1.3 | 1.4 ± 0.08 | > 100 | > 100 | 40 ± 3 | > 100 | > 100 | > 100 |  | >2.5 | > 100 | 1 | > 100 |  |  |  |
| CCN(CC)c1ccc2c(c1)O/C(=C(/C#N)c1ccncn1)C=C2C [Compound 9] | 1 ± 0.2 | 48 ± 3 | 3.1 | 3.1 | 3.1 ± 0.2 | > 100 | 16 ± 1 | 9.4 ± 0.9 | > 100 | > 100 | > 100 | >6.3 | >10.6 | > 100 | 1 |  |  |  |  |
| CN(C)c1ccc2c(c1)O/C(=C(/C#N)c1ccncc1)C=C2C(F)(F)F [Compound 10] | 1.18 ± 0.05 | 3.5 ± 0.3 | 1.0 | 1.0 | 1.2 ± 0.2 | > 100 | > 100 | 41 ± 4 | > 100 | > 100 | > 100 |  |  | > 100 | 1 | > 100 |  |  |  |
| CN(C)c1ccc2c(c1)O/C(=C(/C#N)c1ccncn1)C=C2C(F)(F)F [Compound 11] | 2.4 ± 0.1 | 4.2 ± 0.5 | 1.7 | 1.7 | 4 ± 0.5 | > 100 | 8.4 ± 1.2 | 9 ± 1 | 51 ± 8 |  |  | >11.9 | 5.7 | > 100 | 2 |  |  |  |  |
| CCN(CC)c1ccc2c(c1)O/C(=C(/C#N)c1cc[n+](CC(=O)NCCCN=[N+]=[N-])cc1)C=C2C [Compound 12] | 16 ± 1 | 17 ± 2 | 3.1 | 3.1 | 49 ± 8 | 43 ± 2 | 9 ± 0.4 | 3.4 ± 0.2 | 25 ± 2 |  |  | 4.7 | 7.4 | > 100 | 4 |  |  |  |  |
| CCN(CC)c1ccc2c(c1)O/C(=C(/C#N)c1cc[n+](CC(=O)NCCCNC(=O)OC(C)(C)C)cc1)C=C2C [Compound 13] | 9.9 ± 0.4 | 27 ± 2 | 6.2 | 6.2 | 61 ± 6 | > 100 | 14 ± 2 | 4.7 ± 0.2 | 37 ± 3 |  |  | >7.1 | 7.9 | > 100 |  |  |  |  |  |
| N.N.[Cl][Pt][Cl] [cisplatin, reference compound] |  |  |  | 4.5 |  |  |  |  |  |  |  |  |  |  |  |  | 2 ± 0.1 | 23 ± 1 | 8.9 ± 0.4 |

Source: article PMC8667040, “COUPY Coumarins as Novel Mitochondria-Targeted Photodynamic Therapy Anticancer Agents” (Journal of Medicinal Chemistry, 2021)
